Assay results from US4029671A, “3-[(5-nitro-2-imidazolyl)pyrazol-5-yl]oxamic acid derivatives” (priority 1976, dated 1977).
Where a name gives a salt, the structure may show the parent alone.

Key:
Type in all cases: cell-based
[1] = system: Propionibacterium acnes 79; assay: Agar dilution susceptibility of anaerobic bacteria (Chart 1); details: Cutibacterium acnes, 79, 24 h, read-out: 24 Hr. MIC
[2] = system: Peptococcus asaccharolyticus 1302; assay: as above; details: agar dilution, 37° C., Peptococcus asaccharolyticus 1302
[3] = system: Eubacterium aerofaciens 1235; assay: as above; details: agar dilution, 37° C., Eubacterium aerofaciens 1235
[4] = system: Bacteroides fragilis sp. fragilis 1936B; assay: as above; details: agar dilution, 37° C., Bacteroides fragilis sp. fragilis 1936B
[5] = system: Bacteroides vulgatis 1211; assay: as above; details: agar dilution, 37° C., Bacteroides vulgatis 1211
[6] = system: Peptostreptococcus anaerobius 1428; assay: as above; details: agar dilution, 37° C., Peptostreptococcus anaerobius 1428
[7] = system: Fusobacterium symbiosum 1470; assay: as above; details: agar dilution, 37° C., Fusobacterium symbiosum 1470
[8] = system: Bacteroides melaninogenicus 2736; assay: as above; details: agar dilution, 37° C., Bacteroides melaninogenicus 2736
[9] = system: Fusobacterium necrophorum 6054A; assay: as above; details: agar dilution, 37° C., Fusobacterium necrophorum 6054A
[10] = system: Actinomyces israelii W855; assay: as above; details: Actinomyces israelii, W855, 24 h, read-out: 24 Hr. MIC, agar dilution, 37° C.
[11] = system: Clostridium perfringens 81; assay: microbe, parasite or virus in culture; details: agar dilution, 37° C.
[12] = system: Bacteroides corrodens 1874; assay: Agar dilution susceptibility of anaerobic bacteria (Chart 1); details: agar dilution, 37° C., Bacteroides corrodens 1874
Peptococcus prevoti 1281 = assay: as above; details: agar dilution, 37° C.
[13] = system: Bacteroides melaninogenicus 1856/28; assay: as above; details: agar dilution, 37° C., Bacteroides melaninogenicus 1856/28
[14] = system: Clostridium septicum 1128; assay: as above; details: 37° C.
Procedure: The susceptibility of anaerobic bacteria, both gram positive and gram negative, to a representative number of the novel compounds of this application was determined using the agar dilution method. The bacteria used were isolated from patients hospitalized at the Indiana Univerisity Medical Center. The isolates were identified in the anaerobe laboratory of the Medical Center by the criteria established by Dowell et al., Laboratory Methods in Anaerobic Bacteriology. Public Health Serv. Publ. NO. 1803 (1968) [Center for Disease Control, Atlanta, Ga.]; and by Smith et al., The Pathogenic Anaerobic Bacteria, pages 96- 136 (1968) [Charles C. Thomas, Publisher, Springfield, Ill.]. All the organisms were maintained in chopped meat glucose medium (Scott Labs) at room temperature.
The method used for the agar dilution tests was based on the studies of Sutter et al., Antimicrob. Ag. Chemother. 3, 188-193 (1973). The strains of anaerobic bacteria were grown in 16×× 120 mm. tubes for 16 to 18 hours in Thioglycolate medium without indicator-- 135C (Becton, Dickinson and Co.), to which was added 5 mcg. of hemin per milliliter prior to autoclaving, plus 1 mg. of sodium bicarbonate and 0.1 mcg. of filter-sterilized menadione per milliliter after autoclaving. The strains were adjusted to the turbidity of the No. 1 McFarland standard in Thioglycolate medium without indicator-- 135C containing an additional 0.13 percent Bacto-agar (Difco). Each strain was then applied to the surface of the petri plate (100 mm× 15 mm.) by means of a replicator.
For the agar dilution studies, two-fold dilutions of the test compounds were prepared in deionized water to which was then added laked sheep blood and filter-sterilized menadione so the concentrations after the agar dilution were 5 percent and 10 mcg./ml. respectively. An equal volume of double strength Brucella agar (Becton, Dickinson and Co.) was mixed with each dilution in a water bath held at 50° C. and then poured onto the petri dishes.
All of the procedures were done inside a plastic glove box, except for the incubation of the growth tubes and the pouring of the plates. After the plates hardened, they were put inside the glove box for a minimum of 2 hours before they were inoculated. Generally, the glove box procedures of Aranki et al., Applied Microbiology 17, 568-576 (1969), were followed, but the following modifications were used. Dry materials were introduced into the glove box by evacuating the lock to 28 inches of mercury and filling once with nitrogen gas, followed by evacuating in the same manner and filling with an 80 percent nitrogen plus 10 percent CO2 plus 10 percent hydrogen gas mixture. Liquid media and agar plates were introduced into the glove box by evacuating the lock to 10 inches of mercury and filling with gas four times. The nitrogen gas was used to fill the lock for the first two cycles of evacuation, with the gas mixture described above used for the final two fillings.
All the plates were incubated at 37° C. in Gas Pak jars (Becton, Dickinson and Co.) containing palladium-coated alumina catalysts (reactivated after each use). The results of the agar dilution tests were read after about 24 hours of incubation. The minimum inhibitory concentration (MIC) was recorded as the lowest concentration of test compound at which there was no growth.
The test compounds are identified by the number of the example describing their preparation. The antibiotics clindamycin (C), and erythromycin (E) were also run simultaneously with the novel compounds of this application,for comparison purposes, and the results are included in Chart 1 below.

[15] = system: Peptostreptococcus intermedius 1264; assay: as above; details: agar dilution, 37° C., Peptostreptococcus intermedius 1264
[16] = system: Bacteroides fragilis sp. fragilis 1451; assay: as above; details: agar dilution, 37° C.; Bacteroides fragilis sp. fragilis 1451; sodium salt
[17] = system: Bacteroides fragilis sp. fragilis 111; assay: as above; details: agar dilution, 37° C.; Bacteroides fragilis sp. fragilis 111; sodium salt
[18] = system: Bacteroides fragilis sp. fragilis 2; assay: as above; details: agar dilution, 37° C.; Bacteroides fragilis sp. fragilis 2; sodium salt
[19] = system: Bacteroides fragilis sp. fragilis 107; assay: as above; details: agar dilution, 37° C.; Bacteroides fragilis sp. fragilis 107; sodium salt
[20] = system: Bacteroides fragilis sp. fragilis 113; assay: as above; details: agar dilution, 37° C.; Bacteroides fragilis sp. fragilis 113; sodium salt
[21] = system: Bacteroides fragilis sp. thetaiotaomicron 1438; assay: as above; details: agar dilution, 37° C.; Bacteroides fragilis sp. thetaiotaomicron 1438; sodium salt
[22] = system: Bacteroides fragilis sp. fragilis 103; assay: as above; details: agar dilution, 37° C.; Bacteroides fragilis sp. fragilis 103; sodium salt
[23] = system: Bacteroides fragilis sp. fragilis 1877; assay: as above; details: agar dilution, 37° C.; Bacteroides fragilis sp. fragilis 1877; sodium salt
[24] = system: Bacteroides fragilis sp. fragilis 108; assay: as above; details: agar dilution, 37° C.; Bacteroides fragilis sp. fragilis 108; sodium salt
[25] = system: Bacteroides fragilis sp. fragilis 62; assay: as above; details: agar dilution, 37° C.; Bacteroides fragilis sp. fragilis 62; sodium salt
[26] = system: Bacteroides fragilis sp. fragilis 112; assay: as above; details: agar dilution, 37° C.; Bacteroides fragilis sp. fragilis 112; sodium salt
[27] = system: Bacteroides fragilis sp. thetaiotaomicron 1900A; assay: as above; details: agar dilution, 37° C.; Bacteroides fragilis sp. thetaiotaomicron 1900A; sodium salt
[28] = system: Bacteroides fragilis sp. fragilis 1470; assay: as above; details: agar dilution, 37° C.; Bacteroides fragilis sp. fragilis 1470; sodium salt
[29] = system: Bacteroides fragilis sp. vulgatis 1563; assay: as above; details: agar dilution, 37° C.; Bacteroides fragilis sp. vulgatis 1563; sodium salt
[30] = system: Bacteroides fragilis sp. fragilis 110; assay: as above; details: agar dilution, 37° C.; Bacteroides fragilis sp. fragilis 110; sodium salt
[31] = system: Bacteroides fragilis sp. fragilis 9; assay: as above; details: agar dilution, 37° C.; Bacteroides fragilis sp. fragilis 9; sodium salt

Q: Which MIC [1] does the source give for `Cn1nc(-c2ncc([N+](=O)[O-])n2C)c(C#N)c1NC(=O)C(=O)NN` [Example 8, 5-[4-Cyano-1-methyl-3-(1-methyl-5-nitroimidazol-2-yl)pyrazol-5-yl]semioxamazide, sodium salt] here?
A: > 128 mg/L

Q: And the “24 Hr. MIC” value ([2]; sodium salt)?
A: 1.0 mg/L

Q: And the “24 Hr. MIC” value ([3]; sodium salt)?
A: 4 mg/L

Q: And the “24 Hr. MIC” value ([4]; sodium salt)?
A: 1.0 mg/L

Q: What about the “24 Hr. MIC” value ([5]; sodium salt) of the same compound?
A: 1.0 mg/L

Q: And the “24 Hr. MIC” value ([6]; sodium salt)?
A: 0.5 mg/L

Q: What about the “24 Hr. MIC” value ([7]; sodium salt) of the same compound?
A: 0.5 mg/L

Q: And the “24 Hr. MIC” value ([8]; sodium salt)?
A: 0.5 mg/L

Q: And the “24 Hr. MIC” value ([9]; sodium salt)?
A: 0.5 mg/L

Q: And the MIC [10]?
A: > 128 mg/L

Q: What about the “24 Hr. MIC” value ([11]; sodium salt) of the same compound?
A: 2 mg/L

Q: And the “24 Hr. MIC” value ([12]; sodium salt)?
A: 1.0 mg/L

Q: And the “24 Hr. MIC” value (Peptococcus prevoti 1281; sodium salt)?
A: 32 mg/L

Q: And the “24 Hr. MIC” value ([13]; sodium salt)?
A: 16 mg/L

Q: What does the source list for `CCOC(=O)C(=O)Nc1c(C#N)c(-c2ncc([N+](=O)[O-])n2C)nn1C` [Example 4, N-[4-Cyano-1-methyl-3-(1-methyl-5-nitroimidazol-2-yl)pyrazol-5-yl]oxamic acid, ethyl ester, ammonium salt]?
A: MIC [1]: > 128 mg/L; 24 Hr. MIC ([2]; ammonium salt): ≤ 0.5 mg/L; 24 Hr. MIC ([3]; ammonium salt): ≤ 0.5 mg/L; 24 Hr. MIC ([4]; ammonium salt): ≤ 0.5 mg/L; 24 Hr. MIC ([5]; ammonium salt): ≤ 0.5 mg/L; 24 Hr. MIC ([6]; ammonium salt): ≤ 0.5 mg/L; 24 Hr. MIC ([7]; ammonium salt): ≤ 0.5 mg/L; 24 Hr. MIC ([8]; ammonium salt): ≤ 0.5 mg/L; 24 Hr. MIC ([9]; ammonium salt): ≤ 0.5 mg/L; MIC [10]: > 128 mg/L; 24 Hr. MIC ([11]; ammonium salt): ≤ 0.5 mg/L; 24 Hr. MIC ([14]; ammonium salt): 16 mg/L; 24 Hr. MIC ([12]; ammonium salt): ≤ 0.5 mg/L; 24 Hr. MIC ([15]; ammonium salt): ≤ 0.5 mg/L; 24 Hr. MIC (Peptococcus prevoti 1281; ammonium salt): 32 mg/L; 24 Hr. MIC ([13]; ammonium salt): 1.0 mg/L

Q: Which “24 Hr. MIC” value [16] does the source give for `Cn1nc(-c2ncc([N+](=O)[O-])n2C)c(C#N)c1NC(=O)C(=O)c1ccccc1` [Example 11, N-[4-Cyano-1-methyl-3-(1-methyl-5-nitroimidazol-2-yl)pyrazol-5-yl]-2-phenylglyoxylamide, sodium salt] here?
A: 0.125 mg/L

Q: What about the “24 Hr. MIC” value ([3]; sodium salt) of the same compound?
A: 0.5 mg/L

Q: What about the “24 Hr. MIC” value [17] of the same compound?
A: 0.06 mg/L

Q: And the “24 Hr. MIC” value [18]?
A: 0.06 mg/L

Q: And the “24 Hr. MIC” value ([4]; sodium salt)?
A: 0.06 mg/L

Q: What about the “24 Hr. MIC” value ([5]; sodium salt) of the same compound?
A: 1.0 mg/L

Q: And the “24 Hr. MIC” value ([6]; sodium salt)?
A: 0.25 mg/L

Q: And the “24 Hr. MIC” value ([8]; sodium salt)?
A: ≤ 0.03 mg/L

Q: And the “24 Hr. MIC” value [19]?
A: 0.06 mg/L

Q: And the “24 Hr. MIC” value [20]?
A: 0.125 mg/L

Q: What about the “24 Hr. MIC” value ([9]; sodium salt) of the same compound?
A: 0.25 mg/L

Q: What about the “24 Hr. MIC” value [21] of the same compound?
A: 0.125 mg/L

Q: What about the “24 Hr. MIC” value [22] of the same compound?
A: 0.06 mg/L

Q: And the “24 Hr. MIC” value [23]?
A: 0.06 mg/L

Q: What about the “24 Hr. MIC” value ([11]; sodium salt) of the same compound?
A: 0.5 mg/L

Q: What about the “24 Hr. MIC” value [24] of the same compound?
A: 0.06 mg/L

Q: What about the “24 Hr. MIC” value [25] of the same compound?
A: 0.06 mg/L

Q: And the “24 Hr. MIC” value ([14]; sodium salt)?
A: 0.25 mg/L

Q: And the “24 Hr. MIC” value [26]?
A: 0.06 mg/L

Q: What about the “24 Hr. MIC” value [27] of the same compound?
A: 0.125 mg/L

Q: What about the “24 Hr. MIC” value ([12]; sodium salt) of the same compound?
A: 0.25 mg/L

Q: What about the “24 Hr. MIC” value [28] of the same compound?
A: 0.06 mg/L

Q: What about the “24 Hr. MIC” value [29] of the same compound?
A: 0.25 mg/L

Q: And the “24 Hr. MIC” value ([15]; sodium salt)?
A: 32 mg/L

Q: And the “24 Hr. MIC” value (Peptococcus prevoti 1281; sodium salt)?
A: 2 mg/L

Q: What about the “24 Hr. MIC” value [30] of the same compound?
A: 0.06 mg/L

Q: And the “24 Hr. MIC” value [31]?
A: 0.06 mg/L

Q: What about the “24 Hr. MIC” value ([13]; sodium salt) of the same compound?
A: 16 mg/L
